Patent US20180051284A1, “INHIBITORS OF MIR-17-92 CLUSTER FOR ANTI-TUMOR ACTIVITY IN MULTIPLE MYELOMA AND OTHER MALIGNANCIES” (priority 2014, published 2018)
l = locked nucleic acid (LNA); d = 2'-deoxy (DNA)

Experiments:
NCI-H929 MM xenografts = assay: In vivo anti-MM activity in NCI-H929 xenografted SCID/NOD mice
Description: Male CB-17 severe combined immunodeficient (SCID) mice (6- to 8-weeks old; Harlan Laboratories, Inc., Indianapolis) were housed and monitored in our Animal Research Facility. All experimental procedures and protocols had been approved by the Institutional Ethical Committee (Magna Graecia University) and conducted according to protocols approved by the National Directorate of Veterinary Services (Italy). In accordance with institutional guidelines, mice were sacrificed when tumors reached 2 cm in diameter or in the event of paralysis or major compromise, to prevent unnecessary suffering. Animal experimental procedures have been performed as in previous reports (Di Martino et al, CCR 2012; Di Martino el al. Oncotarget 2013, Di Martino et al PlosOne 2014). Briefly, mice were subcutaneously inoculated with 5×10^6 NCI-H929 cells and treatments started when palpable tumors became detectable, approximately 3 weeks following injection of MM cells. Treatments were performed intraperitoneally with different schedules in order to reach the Maximun Tolerated Dose (MTD) and a dose-response curve. Mice were also inoculated with 5×10^6 luciferase gene-marked U266, AMO-1, AMO-1/abzb, treatments were performed intraperitoneally (i.p.), and tumor volume were measured by IVIS Lumina II.
The tumor sizes were assessed by Caliper measurement. […]

[1] = test system: CD138+ primary MM cells from bone marrow aspirates of myeloma patients; assay: Cell viability (7-AAD) of primary myeloma cells after gymnotic exposure; type: cell-based, Human; settings: 6 days gymnotic exposure, 2.5, 5 or 10 μM; cultured with HS-5 stromal cells
Protocol: (§1) Following informed consent approved by our University Hospital Ethical Commitee, CD138+cells were isolated from the BM aspirates of both Monoclonal gammopathy of undetermined significance (MGUS) and myeloma patients by Ficoll-Hypaque density gradient sedimentation followed by antibody-mediated positive selection using anti-CD138 magnetic activated cell separation microbeads (Miltenyi Biotech, Gladbach, Germany). Purity of immunoselected cells were assessed by flow-cytometric analysis using a phycoerythrin-conjugated CD138 monoclonal antibody by standard procedures.
(§2) 7-aminoactinomycin was used to evaluate cell viability. The staining was performed according to manufacturer's instructions.
CD138+malignant plasma cells derived from bone marrow aspirates of 11 myeloma patients were cultured in presence of human stromal HS-5 cells.

[2] = test system: CD138+ plasma cells derived from MGUS patients; assay: Cell viability (7-AAD) of MGUS plasma cells after gymnotic exposure; type: cell-based, Human; settings: 6 days gymnotic exposure, 5 μM
Protocol: as §1, §2

[3] = test system: miR-17-92 primary transcript (pri-miRs) and mature miR-17-92 cluster members; assay: q-RT-PCR of miR-17-92 member family and two pri-miRs after transfection of MM cells; type: cell-based, Human; settings: 48 hours after transfection with 25 nM
Protocol: (§3) 3×10^5 cells were transfected using Neon Transfection System (Invitrogen, Calif.,U.S.), (2 pulses at 1150, 30ms). The transfection efficiency evaluated by flow-cytometric analysis relative to a FAM dye—labeled anti-miR—negative control reached 85% to 90%.
Reverse transcription (RT) of both primary and mature miRNAs was performed using TaqMan® MicroRNA Assays, following a procedure for multiplexing the RT step (Life Technologies, Publication Part Number 4465407). Briefly, 500 ng of total RNA, prepared with the TRIzol® Reagent (Invitrogen), underwent reverse transcription by the Taq-Man® MicroRNA RT Kit. In this reaction, the RT primer pool was composed by the individual RT primers for each microRNA belonging to the miR-17-92 cluster and two RT primers to allow the reverse transcription of the miR-17-92 primary miRNA. Real-time PCR was performed using TaqMan® MicroRNA Assays together with the TaqMan® Universal PCR Master Mix on an ViiA7 System (Life Technologies). Both primary and mature microRNAs expressions were relatively quantified using the 2-ΔΔCt method (Applied Biosystems User Bulletin No. 2), and expressed as the relative quantity of target miRNA normalized to the RNU44 (assay ID 001094) housekeeping gene. Comparative real-time polymerase chain reaction (RT-PCR) was performed in triplicate, including no-template controls. Relative expression was calculated using the comparative cross threshold (Ct) method.
By the use of a custom q-RT-PCR plate specifically designed by us to detect all six mature miR-17-92 members and the primary transcript by two different assays (pri-mir-17/18a/19a and pri-mir-19b1/20a/92a1), we quantified in a panel of 11 MM cell lines the levels of the different miRNAs and pri-miRs.

panel of MM cell lines = assay: CCK-8 cell growth analysis of a panel of MM cell lines after transfection; type: cell-based, Human; settings: transfection 50-25-12,5 nM; up to 96 hours
Protocol: as §3
Cells were seeded in 100 μL (suspension cell lines) or 50 μL (adherent cell lines) of culture medium at a density ranging from 0,5 to 2,5×10^3 cells per well. Survival was evaluated by both Cell Counting Kit-8 colorimetric assay (CCK-8, Dojindo Molecular Technologies, Japan) and CellTiter-Glo Luminescent Cell Viability Assay (Promega Madison, Wis., USA). Assays were performed according to the manufacturer's instructions. The optical density (OD) was evaluated at wave length of 450 nm. Both OD and luminescence were recorded with the GloMax-multi detection system (Promega, Madison, Wis., USA).

[4] = test system: RPMI-8226, KMS-12-BM and NCI-H929 MM cells; assay: AnnexinV/7-AAD staining apoptosis after transfection; type: cell-based, Human; settings: transfection with 25 nM; 48 hours
Protocol: as §3, §2

gapmer_06: LNA/DNA gapmer, SEQ ID 4 (14 mer): +T*+A*+C*T*T*G*C*T*T*G*G*+C*+T*+T; + LNA, * phosphorothioate (antisense TACTTGCTTGGCTT; sugars from the 5' end l3 d8 l3, all phosphorothioate, methylation of C not given here)
survival (Kaplan-Meier) (NCI-H929 MM xenografts; intraperitoneal treatment, as compared to saline): significant prolongation of survival
tumor growth (caliper tumor volume) (NCI-H929 MM xenografts; intraperitoneally, 75-50-25 μg once weekly or 25-12.5 μg twice weekly, vs saline): significant (P<0.05) inhibition of tumor growth in a dose dependent-manner
dead myeloma cells (7-AAD staining) [1]: significant increase of dead myeloma cells
cell viability (7-AAD) [2]: unaffected
downregulation of primary and mature miRNA sequences (q-RT-PCR) ([3]; NCI-H929 and RPMI-8226 cells, relative to RNase-free water): more effective gapmer to downregulate both primary and mature miRNA sequences
downregulation of pri-miRs and miR-17-92 cluster members (q-RT-PCR) ([3]; NCI-H929 cells, vs RNase-free water): induce downregulation of the two primary transcript and mature single miRNA members
anti-proliferative activity (CCK-8 assay) (panel of MM cell lines): exerted anti-proliferative activity up to 96 hours after transfection in all myeloma cell lines tested
apoptosis (AnnexinV/7-AAD staining) [4]: increased apoptosis
